Source: article PMC4383725 (Cell reports, 2015)

Target: T1, oxysterol-binding protein (OSBP) (Homo sapiens, UniProt P22059)
T1 sequence (P22059 2-807): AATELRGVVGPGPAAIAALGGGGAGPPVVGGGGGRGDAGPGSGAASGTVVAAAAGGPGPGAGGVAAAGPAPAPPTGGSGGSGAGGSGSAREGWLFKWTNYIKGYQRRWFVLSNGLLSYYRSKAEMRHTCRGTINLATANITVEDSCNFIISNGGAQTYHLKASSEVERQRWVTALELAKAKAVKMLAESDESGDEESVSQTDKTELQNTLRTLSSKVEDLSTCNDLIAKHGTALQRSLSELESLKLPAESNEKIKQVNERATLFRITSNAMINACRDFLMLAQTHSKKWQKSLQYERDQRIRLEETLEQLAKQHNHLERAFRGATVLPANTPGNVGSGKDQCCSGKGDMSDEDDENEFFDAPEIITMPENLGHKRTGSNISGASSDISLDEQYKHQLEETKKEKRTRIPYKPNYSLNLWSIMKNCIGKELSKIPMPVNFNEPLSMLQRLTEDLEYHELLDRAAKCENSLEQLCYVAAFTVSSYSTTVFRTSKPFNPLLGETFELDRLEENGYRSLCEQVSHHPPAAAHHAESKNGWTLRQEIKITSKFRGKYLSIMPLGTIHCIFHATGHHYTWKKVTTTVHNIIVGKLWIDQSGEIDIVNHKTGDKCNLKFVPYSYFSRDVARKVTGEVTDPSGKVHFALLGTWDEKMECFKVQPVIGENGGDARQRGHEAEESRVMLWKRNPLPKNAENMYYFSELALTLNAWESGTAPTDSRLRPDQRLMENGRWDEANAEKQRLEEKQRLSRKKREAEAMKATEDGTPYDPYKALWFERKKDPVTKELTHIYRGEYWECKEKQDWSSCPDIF
Test: MicroScale Thermophoresis with purified GFP-OSBP

CCC(C)n1ncn(-c2ccc(N3CCN(c4ccc(OCC5COC(Cn6cncn6)(c6ccc(Cl)cc6Cl)O5)cc4)CC3)cc2)c1=O (stereo not shown) [ITZ, itraconazole]
Kd: ~430 nM
